Measured values as given in patent US6589984B1, “Benzofurylpyrone derivatives” (Teijin Limited, priority 1998, dated 2003).

Tested on: Human hepatic cancer cells HepG2
Test: TG production inhibiting activity (14C-acetic acid incorporation into TG) in HepG2 cells
Type: cell-based
Conditions: Homo sapiens, HepG2; group criterion, alternatives: IC50 at least 10 μM and less than 100 μM, or at least 5% and less than 30% inhibition at 1 μM, or at least 30% and less than 50% inhibition at 10 μM
Protocol: Human hepatic cancer cells HepG2 were inoculated into a 24-well plate (Costar No. 3524) at 4×10^4 cells/well, and 1 ml of medium (eRDF medium containing 10% bovine serum (Kyokuto Chemical Co.)) was used for 6 day culturing with 5% CO2 at 37° C. After drawing off the supernatant medium, the cells were freshly rinsed with 1 ml of PBS(−) buffer solution (Takara Shuzo) and drawn off. This procedure was repeated twice and then 1 ml of fresh medium (eRDF medium) was added.
6-(benzofuran-2-yl)-3,5-dimethyl-4-hydroxy-2H-pyran-2-one (Example 2) was dissolved in dimethylsulfoxide (DMSO) to prepare a 20 mM sample stock solution. A diluted solution was obtained by diluting the sample solution with DMSO.
To the cells prepared above there were added the sample stock solution or its diluted solution at 5 μl per well and 10 μl of ^14C-acetic acid solution (a solution of Amersham Code No. CFA13 diluted 4.4-fold with PBS(−) buffer), and culturing was carried out for one day with 5% CO2 at 37° C.
After the culturing was completed, the culture solution was removed, and 1 ml of extraction solution (a mixture of n-hexane and isopropyl alcohol at 2:1) was added for extraction treatment on the lipid components in the cells. After the treatment, the extract containing the obtained lipid components was air-dried, the residue was redissolved in 20 μl of a mixed solution of n-hexane and ethyl acetate at 9:1, and the solution was spotted on a thin-layer chromatography plate (S319, Tokyo Kasei) and developed by thin-layer chromatography with the mixed solution mentioned above. After air-drying, the lipid components were colored with iodine vapor, the portion corresponding to TG was cut out, and the amount of TG biosynthesized was measured with a liquid scintillation counter.

Compound	IC50
CC#CCOc1ccc2oc(-c3oc(=O)c(C)c(O)c3C)cc2c1 [Example 181, 6-(5-(2-butyn-1-yloxy)benzofuran-2-yl)-3,5-dimethyl-4-hydroxy-2H-pyran-2-one]	10 to 100 µM
Cc1c(O)c(Oc2ccccc2)c(-c2cc3ccccc3o2)oc1=O [Example 67, 6-(benzofuran-2-yl)-4-hydroxy-3-methyl-5-phenoxy-2H-pyran-2-one]	10 to 100 µM
COc1ccc(C(Oc2ccc3oc(-c4oc(=O)c(C)c(O)c4C)cc3c2)c2ccc(OC)cc2)cc1 [Example 201, 6-(5-(bis(4-methoxyphenyl)methoxy)benzofuran-2-yl)-3,5-dimethyl-4-hydroxy-2H-pyran-2-one]	10 to 100 µM
Cc1c(-c2cc3cc(OCCCCNC(=O)OC(C)(C)C)ccc3o2)oc(=O)c(C)c1O [Example 224, 6-(5-(4-(t-butoxycarbonylamino)butoxy)benzofuran-2-yl)-3,5-dimethyl-4-hydroxy-2H-pyran-2-one]	10 to 100 µM
COc1c(-c2cc3ccccc3o2)oc(=O)c(C)c1O [Example 37, 6-(benzofuran-2-yl)-4-hydroxy-5-methoxy-3-methyl-2H-pyran-2-one]	10 to 100 µM
Cc1c(-c2cc3ccccc3o2)oc(=O)c(C(C)C)c1O [Example 38, 6-(benzofuran-2-yl)-4-hydroxy-3-isopropyl-5-methyl-2H-pyran-2-one]	10 to 100 µM
Cc1c(-c2cc3ccccc3o2)oc(=O)c(C)c1OS(=O)(=O)C(F)(F)F [Example 43, 6-(benzofuran-2-yl)-3,5-dimethyl-4-trifluoromethanesulfonyloxy-2H-pyran-2-one]	10 to 100 µM
CC(=O)Oc1c(C)c(-c2cc3ccc(N(C)C)cc3o2)oc(=O)c1C [Example 23, 4-acetyloxy-3,5-dimethyl-6-(6-dimethylaminobenzofuran-2-yl)-2H-pyran-2-one]	10 to 100 µM
Cc1c(-c2cc3cc(OCC(c4ccccc4)c4ccccc4)ccc3o2)oc(=O)c(C)c1O [Example 195, 3,5-dimethyl-6-(5-(2,2-diphenylethoxy)benzofuran-2-yl)-4-hydroxy-2H-pyran-2-one]	10 to 100 µM
CCOCCOc1ccc2oc(-c3oc(=O)c(C)c(O)c3C)cc2c1 [Example 185, 3,5-dimethyl-6-(5-(2-ethoxyethoxy)benzofuran-2-yl)-4-hydroxy-2H-pyran-2-one]	10 to 100 µM
CC=CCc1c(-c2cc3ccccc3o2)oc(=O)c(C)c1O [Example 68, 6-(benzofuran-2-yl)-5-(2-butenyl)-4-hydroxy-3-methyl-2H-pyran-2-one]	10 to 100 µM
Cc1c(-c2cc3cc(OCc4nccs4)ccc3o2)oc(=O)c(C)c1O [Example 60, 4-hydroxy-3,5-dimethyl-6-(5-(2-thiazolylmethoxy)benzofuran-2-yl)-2H-pyran-2-one]	10 to 100 µM
Cc1c(-c2cc3cc(OCC4CCCC4)ccc3o2)oc(=O)c(C)c1O [Example 126, 6-(5-(cyclopentylmethoxy)benzofuran-2-yl)-3,5-dimethyl-4-hydroxy-2H-pyran-2-one]	10 to 100 µM
Cc1c(-c2cc3cc(OCC4COc5ccccc5O4)ccc3o2)oc(=O)c(C)c1O (centres unmarked) [Example 177, 6-(5-(1,4-benzodioxan-2-ylmethoxy)benzofuran-2-yl)-3,5-dimethyl-4-hydroxy-2H-pyran-2-one]	10 to 100 µM

Next, values leading:

IC50	Compound
10 to 100 µM	CC(=O)Oc1ccc2cc(-c3oc(=O)c(C)c(OC(C)=O)c3C)oc2c1 [Example 275, 4-acetyloxy-6-(6-acetyloxybenzofuran-2-yl)-3,5-dimethyl-2H-pyran-2-one]
10 to 100 µM	CC(=O)Oc1c(C)c(-c2cc3ccccc3o2)oc(=O)c1C(C)C [Example 287, 4-acetyloxy-6-(benzofuran-2-yl)-3-isopropyl-5-methyl-2H-pyran-2-one]
10 to 100 µM	COCOc1ccc2cc(-c3oc(=O)c(C)c(OC(C)=O)c3C)oc2c1 [Example 292, 4-acetyloxy-3,5-dimethyl-6-(6-methoxymethoxybenzofuran-2-yl)-2H-pyran-2-one]
10 to 100 µM	CCOC(=O)CCCCCOc1ccc2oc(-c3oc(=O)c(C)c(O)c3C)cc2c1 [Example 217, 3,5-dimethyl-6-(5-(5-(ethoxycarbonyl)pentyloxy)benzofuran-2-yl)-4-hydroxy-2H-pyran-2-one]

Same assay, conditions: Homo sapiens, HepG2; group criterion, alternatives: IC50 less than 10 μM, or at least 30% inhibition at 1 μM, or at least 50% inhibition at 10 μM

Compound	IC50
CC(=O)Oc1c(C)c(-c2cc3cc(Br)ccc3o2)oc(=O)c1C [Example 65, 4-acetyloxy-6-(5-bromobenzofuran-2-yl)-3,5-dimethyl-2H-pyran-2-one]	< 10 µM
Cc1c(O)c(CC2CCCC2)c(-c2cc3ccccc3o2)oc1=O [Example 66, 6-(benzofuran-2-yl)-5-cyclopentylmethyl-4-hydroxy-3-methyl-2H-pyran-2-one]	< 10 µM
Cc1c(-c2cc3cc(OCc4ccccc4)ccc3o2)oc(=O)c(C)c1OC(=O)c1ccncc1 [Example 56, 6-(5-benzyloxybenzofuran-2-yl)-3,5-dimethyl-4-isonicotinoyloxy-2H-pyran-2-one]	< 10 µM
Cc1c(-c2cc3ccccc3o2)oc(=O)c(C)c1OC(=O)c1ccco1 [Example 62, 6-(benzofuran-2-yl)-3,5-dimethyl-4-(2-furoyloxy)-2H-pyran-2-one]	< 10 µM
Cc1c(-c2cc3cc(OCc4cncnc4)ccc3o2)oc(=O)c(C)c1O [Example 27, 3,5-dimethyl-4-hydroxy-6-(5-(5-pyrimidinylmethoxy)benzofuran-2-yl)-2H-pyran-2-one]	< 10 µM
Cc1c(-c2cc3cc(OCc4ccccc4)ccc3o2)oc(=O)c(C)c1OC(=O)c1cccnc1 [Example 55, 6-(5-benzyloxybenzofuran-2-yl)-3,5-dimethyl-4-nicotinoyloxy-2H-pyran-2-one]	< 10 µM
Cc1c(-c2cc3cc(OCc4ccc(Cl)c(Cl)c4)ccc3o2)oc(=O)c(C)c1O [Example 159, 6-(5-(3,4-dichlorobenzyloxy)benzofuran-2-yl)-3,5-dimethyl-4-hydroxy-2H-pyran-2-one]	< 10 µM
Cc1c(-c2cc3ccccc3o2)oc(=O)c(C)c1C(=O)OC1CCC(=O)N1 (centres unmarked) [Example 70, 6-(benzofuran-2-yl)-3,5-dimethyl-4-(2-pyrrolidon-5-ylcarboxy)-2H-pyran-2-one]	< 10 µM
Cc1c(-c2cc3ccccc3o2)oc(=O)c(C)c1OC(=O)CCc1ccccc1 [Example 61, 6-(benzofuran-2-yl)-3,5-dimethyl-4-(3-phenylpropionyloxy)-2H-pyran-2-one]	< 10 µM
COc1ccc2oc(-c3oc(=O)c(C)c(O)c3C)cc2c1 [Example 12, 3,5-dimethyl-4-hydroxy-6-(5-methoxybenzofuran-2-yl)-2H-pyran-2-one]	< 10 µM
Cc1c(-c2cc3cc(N(C)C)ccc3o2)oc(=O)c(C)c1O [Example 48, 3,5-dimethyl-6-(5-(dimethylamino)benzofuran-2-yl)-4-hydroxy-2H-pyran-2-one]	< 10 µM

Further lines, results first:

IC50	Compound
< 10 µM	C#CCOc1ccc2oc(-c3oc(=O)c(C)c(O)c3C)cc2c1 [Example 215, 3,5-dimethyl-4-hydroxy-6-(5-(2-propyn-1-yloxy)benzofuran-2-yl)-2H-pyran-2-one]
< 10 µM	COCOc1ccc2cc(-c3oc(=O)c(C)c(O)c3C)oc2c1 [Example 291, 3,5-dimethyl-4-hydroxy-6-(6-methoxymethoxybenzofuran-2-yl)-2H-pyran-2-one]
< 10 µM	Cc1c(-c2cc3cc(OCc4ccc(F)cc4)ccc3o2)oc(=O)c(C)c1O [Example 228, 3,5-dimethyl-6-(5-(4-fluorobenzyloxy)benzofuran-2-yl)-4-hydroxy-2H-pyran-2-one]
< 10 µM	CC(=O)Oc1c(C)c(-c2cc3cc(OCc4ccccc4)ccc3o2)oc(=O)c1C [Example 270, 4-acetyloxy-6-(5-benzyloxybenzofuran-2-yl)-3,5-dimethyl-2H-pyran-2-one]
< 10 µM	Cc1c(-c2cc3cc(C(=O)N(C)c4ccccc4)ccc3o2)oc(=O)c(C)c1O [Example 299, 3,5-dimethyl-4-hydroxy-6-(5-(N-methyl-N-phenylcarbamoyl)benzofuran-2-yl)-2H-pyran-2-one]
< 10 µM	Cc1c(-c2cc3cc(N(C)C(=O)c4cccs4)ccc3o2)oc(=O)c(C)c1O [Example 252, 3,5-dimethyl-4-hydroxy-6-(5-(N-methyl-N-(2-thienylcarbonyl)amino)benzofuran-2-yl)-2H-pyran-2-one]
< 10 µM	Cc1c(-c2cc3cc(C(=O)N4CCc5ccccc5C4)ccc3o2)oc(=O)c(C)c1O [Example 302, 3,5-dimethyl-4-hydroxy-6-(5-(1,3,4-trihydroisoquinolin-2-ylcarbonyl)benzofuran-2-yl)-2H-pyran-2-one]
< 10 µM	CC(=O)Oc1c(C)c(-c2cc3cc(OS(=O)(=O)C(F)(F)F)ccc3o2)oc(=O)c1C [Example 257, 4-acetyloxy-3,5-dimethyl-6-(5-trifluoromethanesulfonyloxybenzofuran-2-yl)-2H-pyran-2-one]
< 10 µM	CC(=O)Oc1c(C)c(-c2cc3c(OC(C)=O)cccc3o2)oc(=O)c1C [Example 265, 4-acetyloxy-6-(4-acetyloxybenzofuran-2-yl)-3,5-dimethyl-2H-pyran-2-one]
